Among the data in ChEMBL document CHEMBL1139964, “Biopartitioning micellar chromatography to predict mutagenicity of aromatic amines” (Eur J Med Chem, 2007) are Solubility and logP values, retold here.

Values after ≈ are worked out from the molar mass of the structure shown.

The nature of data set [1]: Solubility in water. Format: physicochemical. Conditions: buffer.
Data set [2] is described as follows: Partition coefficient, log P of the compound. Type of data set: physicochemical. Conditions: octanol/water.

In general, Solubility refers to the dissolved amount per volume that the medium holds. The term logP denotes a log measure of how a compound divides between an organic and an aqueous phase. A higher logP goes with higher lipophilicity.

`Nc1ccc2c3c(cccc13)-c1ccccc1-2` came in with a Solubility in data set [1] of 0.715 g/L (≈ 3.29 mM).

In the case of `Nc1c(Br)cc([N+](=O)[O-])cc1[N+](=O)[O-]`, the lipophilicity (logP) in data set [2] amounted to 2.73.

The molecule `Nc1cccc2cc3ccccc3cc12` registered a Solubility in data set [1] of 2.59 g/L (≈ 13.4 mM).

Molecule `Nc1ccc2c(c1)Cc1ccccc1-2` registered a Solubility in data set [1] of 8.78 g/L (≈ 48.4 mM).

For the molecule `Nc1ccc(Cc2ccc(N)cc2)cc1`, the Solubility in data set [1] is 1 10^3g/L.

As to `Nc1ccc2cc3ccccc3cc2c1` [2-AMINOANTHRACENE], in data set [1], the Solubility was 1.3 g/L (≈ 6.73 mM). In data set [2], the logP was determined as 2.62.

On to `Nc1ccc(Br)cc1` [4-BROMOANILINE], for which the Solubility in data set [1] amounted to 707 g/L (≈ 4110 mM).

Take `Nc1ccc2ccc3cccc4ccc1c2c34` [AMINOPYRENE]: the Solubility in data set [1] is listed as 0.576 g/L (≈ 2.65 mM). Also, in data set [2], the logP was 4.99.

For the molecule `Cc1cc(-c2ccc(N)c(C)c2)ccc1N` [ORTHOTOLIDINE], in data set [1], the Solubility is 1.3 10^3g/L.
